Counter-ions that a name gives are not always drawn.
Columns and labels:
Conditions in all cases: exposure time: 72 h
E57 [1] = patient-derived glioblastoma stem cells of mesenchymal subtype; test: surviving fraction (nuclei count normalised to DMSO); higher = more cells surviving (less toxic)
E34 [2] = patient-derived glioblastoma stem cells of proneural subtype; test: as above
E21 [3] = patient-derived glioblastoma stem cells of mesenchymal subtype; test: as above
E13 [4] = patient-derived glioblastoma stem cells of classical subtype; test: as above
E28 [5] = patient-derived glioblastoma stem cells of classical subtype; test: as above
E31 [6] = patient-derived glioblastoma stem cells of proneural subtype; test: as above
FT3469 [7] = normal neural stem cell line; test: as above
E57 [8] = test: phenotypic distance (Euclidean, principal components) from DMSO controls (arbitrary units); higher = stronger morphological change
E34 [9] = test: as above
E21 [10] = test: as above
E13 [11] = test: as above
E28 [12] = test: as above
E31 [13] = test: as above
FT3469 [14] = test: as above
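For phenotypic distance (Euclidean, principal components) from DMSO controls in this document: cell Painting imaging in 384-well plates, CellProfiler features reduced to at least 20 principal components, Euclidean distance versus same-plate DMSO vehicle wells (0.1% v/v), median over six images per well.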
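For surviving fraction (nuclei count normalised to DMSO) in this document: nuclei counted by high-content imaging of Hoechst-stained cells in laminin-coated 384-well plates, relative to 0.1% DMSO vehicle wells, with staurosporine as cell-death control.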

CCC(C)(C)c1ccc(CC(C)CN2C[C@@H](C)O[C@@H](C)C2)cc1 (stereo partly drawn) [Amorolfine hydrochloride]
Conditions	phenotypic distance	surviving fraction
E13 [4], 4.1 nM	–	0.95
E13 [4], 12.3 nM	–	0.95
E13 [4], 37 nM	–	1
E13 [4], 111.1 nM	–	0.97
E13 [4], 333.3 nM	–	0.959
E13 [4], 1000 nM	–	0.957
E13 [4], 3000 nM	–	0.638
E13 [11], 4.1 nM	0.768	–
E13 [11], 12.3 nM	0.554	–
E13 [11], 37 nM	0.708	–
E13 [11], 111.1 nM	0.428	–
E13 [11], 333.3 nM	0.915	–
E13 [11], 1000 nM	1.17	–
E13 [11], 3000 nM	3.08	–
E21 [3], 4.1 nM	–	0.94
E21 [3], 12.3 nM	–	1.02
E21 [3], 37 nM	–	0.982
E21 [3], 111.1 nM	–	1.09
E21 [3], 333.3 nM	–	1.03
E21 [3], 1000 nM	–	1.07
E21 [3], 3000 nM	–	0.816
E21 [10], 4.1 nM	0.885	–
E21 [10], 12.3 nM	0.483	–
E21 [10], 37 nM	0.732	–
E21 [10], 111.1 nM	0.989	–
E21 [10], 333.3 nM	1.11	–
E21 [10], 1000 nM	1.17	–
E21 [10], 3000 nM	1.97	–
E28 [5], 4.1 nM	–	1.09
E28 [5], 12.3 nM	–	0.852
E28 [5], 37 nM	–	1.21
E28 [5], 111.1 nM	–	0.914
E28 [5], 333.3 nM	–	1.17
E28 [5], 1000 nM	–	0.839
E28 [5], 3000 nM	–	0.777
E28 [12], 4.1 nM	0.829	–
E28 [12], 12.3 nM	0.874	–
E28 [12], 37 nM	0.838	–
E28 [12], 111.1 nM	0.682	–
E28 [12], 333.3 nM	0.846	–
E28 [12], 1000 nM	0.746	–
E28 [12], 3000 nM	1.38	–
E31 [6], 4.1 nM	–	0.939
E31 [6], 12.3 nM	–	0.934
E31 [6], 37 nM	–	0.967
E31 [6], 111.1 nM	–	0.983
E31 [6], 333.3 nM	–	1.05
E31 [6], 1000 nM	–	0.996
E31 [6], 3000 nM	–	0.804
E31 [13], 4.1 nM	0.639	–
E31 [13], 12.3 nM	0.653	–
E31 [13], 37 nM	0.833	–
E31 [13], 111.1 nM	0.88	–
E31 [13], 333.3 nM	0.504	–
E31 [13], 1000 nM	1.35	–
E31 [13], 3000 nM	2.01	–
E34 [2], 4.1 nM	–	0.983
E34 [2], 12.3 nM	–	1.06
E34 [2], 37 nM	–	0.937
E34 [2], 111.1 nM	–	1.06
E34 [2], 333.3 nM	–	1.09
E34 [2], 1000 nM	–	1.14
E34 [2], 3000 nM	–	0.815
E34 [9], 4.1 nM	0.551	–
E34 [9], 12.3 nM	1.11	–
E34 [9], 37 nM	1.1	–
E34 [9], 111.1 nM	1.17	–
E34 [9], 333.3 nM	0.856	–
E34 [9], 1000 nM	0.796	–
E34 [9], 3000 nM	1.7	–
E57 [1], 4.1 nM	–	1
E57 [1], 12.3 nM	–	0.954
E57 [1], 37 nM	–	1.05
E57 [1], 111.1 nM	–	1.02
E57 [1], 333.3 nM	–	0.957
E57 [1], 1000 nM	–	0.983
E57 [1], 3000 nM	–	1.02
E57 [8], 4.1 nM	0.935	–
E57 [8], 12.3 nM	0.283	–
E57 [8], 37 nM	0.726	–
E57 [8], 111.1 nM	0.552	–
E57 [8], 333.3 nM	0.896	–
E57 [8], 1000 nM	1.08	–
E57 [8], 3000 nM	2.02	–
FT3469 [7], 4.1 nM	–	1.01
FT3469 [7], 12.3 nM	–	0.924
FT3469 [7], 37 nM	–	1.24
FT3469 [7], 111.1 nM	–	1.1
FT3469 [7], 333.3 nM	–	1.02
FT3469 [7], 1000 nM	–	0.973
FT3469 [7], 3000 nM	–	1.02
FT3469 [14], 4.1 nM	1.11	–
FT3469 [14], 12.3 nM	0.614	–
FT3469 [14], 37 nM	1.09	–
FT3469 [14], 111.1 nM	0.588	–
FT3469 [14], 333.3 nM	0.893	–
FT3469 [14], 1000 nM	0.525	–
FT3469 [14], 3000 nM	1.13	–

— the supplement of paper PMC13207355
